Earlier results in paper PMC3350394, “Kinetic analysis and test-retest variability of the radioligand [^11C](R)-PK11195 binding to TSPO in the human brain - a PET study in control subjects” (EJNMMI Research, 2012).

Key:
[1] = molecular target: dopamine D2/3 receptor; parameters: method as in PMID 2528555, PMID 8122313; settings: approximately; read-out: affinity; cited from earlier work
[2] = same experimental setting and analytical approach; cited from earlier work
[3] = parameters: method as in PMID 2528555; settings: cited from earlier work
[4] = parameters: method as in PMID 2528555; settings: cited from earlier work; remark: listed apart in the source
[5] = test system: TSPO; parameters: method as in PMID 19948230; settings: up; cited from earlier work
[6] = test system: TSPO; parameters: method as in PMID 15103694; settings: unlabelled displacer; cited from earlier work
[7] = test system: alfa1-acid glycoprotein (AGP); parameters: method as in PMID 12623120; settings: cited from earlier work
[8] = test system: human serum albumin (HSA); parameters: method as in PMID 12623120; settings: relative to AGP; cited from earlier work

## CCN1CCC[C@H]1CNC(=O)c1c(O)c(Cl)cc(Cl)c1OC (racemic) [[^11C]raclopride]
[1]
  Kd: 1 to 3 nM

## CCN1CCC[C@H]1CNC(=O)c1c(O)c(Cl)cc(Cl)c1O[11CH3] (racemic) [[^11C]raclopride]
[2]
  K1: 0.16
[3]
  plasma protein binding: 96%
[4]
  first pass extraction: about 20%

## COc1ccccc1CN(C(C)=O)c1cnccc1Oc1ccccc1 [PBR28]
[5]
  displacement of [11C](R)-PK11195 binding: 40% to 60

## CCC(C)N(C)C(=O)c1cc2ccccc2c(-c2ccccc2Cl)n1 (stereo not drawn) [PK11195, 1-(2-chlorophenyl)-N-methyl-N-(1-methylpropyl)-3-isoquinoline carboxamide]
[6]
  displacement of the total [11C]DAA1106 binding: about 70%

## CCC(C)N(C)C(=O)c1cc2ccccc2c(-c2ccccc2Cl)n1 (stereo not drawn) [[^3 H]PK11195, 1-(2-chlorophenyl)-N-methyl-N-(1-methylpropyl)-3-isoquinoline carboxamide]
[7]
  binding to AGP: high affinity
[8]
  binding to HSA: to a lesser extent

## CCN1CCC[C@H]1CNC(=O)c1cc(Br)cc(OC)c1O[11CH3] [[^11C]FLB-457]
[2]
  K1: 0.42
